Test results: patent US9421222B2, “Treatment of compartment syndrome” (LONDON HEALTH SCIENCES CENTRE RESEARCH INC., priority 2013, dated 2016)
Entries after “also recorded” stand apart in the source; their conditions may differ.

Experiments:
Assay type in all cases: in vivo
[1] = test system: CS-challenged skeletal muscle (EDL); test: Rat compartment syndrome model, intravital video microscopy (IVVM) of EDL muscle
From the text: (§1) The experimental protocol was approved by the Council on Animal Care of the University of Western Ontario, and has been previously described in detail. Briefly, male Wistar rats (body weight 180-250 g) were anesthetized by inhalational isoflurane (5% induction, 2% maintenance) in 1:1 oxygen/nitrogen mixture. Left carotid artery was cannulated to allow for the monitoring of systemic blood pressure, fluid administration and blood sampling.
(§2) Compartment pressure monitoring probe (Synthes, Westchester Pa.) was inserted into the posterior compartment via gauge 16 angiocatheter (BD), while gauge 24 angiocatheter (BD) attached to an IV line was placed into the anterior compartment of the rat hind limb. CS was induced by an infusion of isotonic saline, leading to an elevation of intra-compartmental pressure (ICP) to 30 mmHg. Elevated ICP was maintained for 2 hours. Fasciotomy was performed to decompress the hind limb compartments; the muscles were allowed to reperfuse for 45 minutes, followed by intravital video microscopy.
(§3) Rats were randomly assigned to one of four experimental groups: sham (n=4), CS (n=4), CS+CORM-3 (n=8) and CS+iCORM-3 (n=8).
The extensor digitorum longus (EDL) muscle was dissected to the level of its distal tendon, which was tied with a suture and cut from its bony insertion. The animal was transferred onto the stage of an inverted microscope (Nikon™); the EDL was reflected into a saline bath containing 5 μg/ml each of the fluorescent vital dyes bisbenzimide (BB; exc. 343 nm, em. 483 nm) and ethidium bromide (EB; exc. 482 nm, em. 616 nm). BB stains the nuclei of all cells while EB stains the nuclei of only those cells with damaged cell membrane. Thus, EB/BB ratio provided an index of tissue injury.
Microvascular perfusion and leukocytes within the post-capillary venules were recorded by translumination with 20× and 40× objectives, respectively, in five adjacent fields of view. Fluorescence microscopy was used to visualize the BB and EB from the same fields of view that had been selected for the measurement of capillary perfusion. At the conclusion of the experiment, rats were euthanized by an overdose of anesthetic agent.
Capillary perfusion was assessed by counting the number of continuously-perfused (CPC), intermittently-perfused (IPC) and non-perfused (NPC) capillaries that crossed three parallel lines drawn perpendicular to the capillary axis on the video monitor, and was expressed as % of total capillaries. Tissue injury was assessed by counting the number of EB- and BB-labelled nuclei, and expressed as EB/BB ratio. Leukocyte activation was assessed by counting the numbers of rolling and adherent leukocytes in post-capillary venules and expressed per 1000 μm^2. Venular area was measured using ImageJ (NIH, Bethesda, Md.). A leukocyte was considered adherent if it remained stationary for at least 30 seconds, and a cell was considered rolling if it remained in contact with the wall of the vessel during its movement.

[2] = Systemic leukocyte counts, hemoglobin and carboxyhemoglobin in rat CS model
From the text: as §1, §2, §3
Two hours of elevated ICP were followed by fasciotomy, injection of CORM-3 (or iCORM-3) and 45 min reperfusion. CS-associated rise in systemic leukocytes was reversed by CORM-3 application (*p<0.01 from sham; †p<0.05 from CS+iCORM-3). CORM-3 and iCORM-3 caused no changes in systemic levels of COHb. LKC, leukocyte counts; COHb, carboxyhemoglobin.

[3] = test system: TNF-α; test: Serum TNF-α (ELISA) in rat CS model; settings: 30 and 45 minutes post-fasciotomy, 10 mg/kg IP
Method: TNF-α levels were measured from arterial blood samples drawn at 9 time points: (1) baseline, (2) 15 minutes into CS, (3) 45 minutes into CS, (4) 90 minutes into CS, (5) 2 hours into CS-just prior to fasciotomy and CORM-3 (or iCORM-3) injection, (6) 10 minutes post-fasciotomy, (7) 20 minutes post fasciotomy, (8) 30 minutes post fasciotomy, (9) 45 minutes post fasciotomy, just before IVVM. TNF-α was assessed using enzyme-linked immunosorbent assay (ELISA, Pierce Biotechnology, c/o Thermo Scientific, Rockford, Ill.) according to manufacturer's instructions. The TNF-α ELISA was sensitive to less than […].

[4] = test system: compartment syndrome; test: Porcine model of compartment syndrome: PMN activation and capillary perfusion (IVVM); settings: pig, 6 h elevated ICP, 10 mg/kg
Method: (§4) Following the basic surgical setup (anesthesia, intubation, auricular vein and femoral artery catheterization), the animals undergo 6 hours of elevated intra-compartmental pressure (i.e. CS), followed by fasciotomy and reperfusion. The time interval was chosen in order to closely mimic the condition in human patients. CORM-3 (or iCORM-3), 10 mg/kg of animal is applied prior to fasciotomy. Blood is sampled at various time intervals (baseline, 1 hr CS, 2 hr CS, 3 hr CS, 4 hr CS, 5 hr CS, 6 hr CS/fasciotomy, and every 10-15 min post-fasciotomy, for a total of 20 samples per animal), in order to monitor leukocyte activation and serum TNF-α levels. IVVM is carried out at 3 hours post-fasciotomy.

[5] = test system: TNF-α; test: Serum TNF-α time course in porcine model of CS; settings: pig, 6 h elevated ICP, 10 mg/kg, 3 h reperfusion
Method: as §4

[6] = test system: compartment syndrome; test: CatWalk gait assessment in rats after CS without fasciotomy; settings: rat, 180 min CS, no fasciotomy
Method: Animal preparation and synthesis of CORM-3 were similar to Example 3.
Complete inducement of CS occurred at about 180 minutes post induction. The animals were injected at 180 minutes and every 24 hours thereafter.
Quantitative assessment of footfalls and gait in the rats was assessed using CatWalk™, which a system for quantitative assessment of footfalls and gait in rats and mice.

[7] = rat CS model, 10 mg/kg IP at fasciotomy
[8] = rat CS model, CORM-3 versus control
[9] = rat, 2 h elevated ICP, fasciotomy, 10 mg/kg IP, 45 min reperfusion, mean±SEM

Q: What does the source list for `NCC(=O)O.[C-]#[O+].[C-]#[O+].[C-]#[O+].[Cl][Ru]` [CORM-3, tricarbonylchloro-glycinate-ruthenium(II)]?
A: Effect on leukocyte adhesion within post-capillary venules ([1]; rat CS model, 10 mg/kg IP): prevent leukocyte adhesion; Effect on leukocyte rolling ([1]; rat CS model, 10 mg/kg IP): no effect; Effect on CS-associated microvascular perfusion changes [1, 7]: reversed; Effect on CS-associated tissue injury [1, 7]: reversed; Decrease in leukocyte adherence (leukocyte activation) [1, 8]: 8 fold; Decrease in tissue injury [1, 8]: 4 fold; Leukocyte adherence in post-capillary venules [1, 9]: 0.6±0.3 leukocytes/30 s/1000 μm^2; Leukocyte rolling in post-capillary venules [1, 9]: 3.0±0.8 leukocytes/30 s/1000 μm^2; Muscle injury, EB/BB ratio [1, 9]: 0.07±0.01; Continuously-perfused capillaries (CPC) ([1]; rat, % of total capillaries, 2 h elevated ICP, fasciotomy, 10 mg/kg IP, 45 min reperfusion, mean±SEM): 57±5%; Effect on COHb levels ([2]; rat CS model, 10 mg/kg IP): no effect; Effect on CS-associated rise in systemic leukocyte counts [2, 7]: decrease the severity of this response; COHb (carboxyhemoglobin) [2, 9]: 1.6 ± 0.1%; Hemoglobin [2, 9]: 129.5 ± 2.7 g/L; LKC (systemic leukocyte counts) [2, 9]: 2.3 ± 0.2^† Units × 10^9/L; Serum TNF-α in post-fasciotomy/reperfusion period [3]: effectively prevented; also recorded: reversed; Continuously-perfused capillaries (CPC) ([4]; IVVM 3 h post-fasciotomy): increase; Intermittently-perfused capillaries (IPC) ([4]; IVVM 3 h post-fasciotomy): decrease; Non-perfused capillaries (NPC) ([4]; IVVM 3 h post-fasciotomy): decrease; Number of activated PMNs post-fasciotomy ([4]; fasciotomy, versus iCORM-3): significant decrease; Serum TNF-α release associated with post-fasciotomy/reperfusion [5]: prevented any TNF-α release; Static and dynamic gait functional parameters (CatWalk) ([6]; 10 mg/kg IP at 180 min and every 24 h, relative to iCORM-3): significantly improved; Weight bearing parameters (CatWalk) ([6]; multi dose 10 mg/kg IP): improvement
